Reference: patent US8759355B2, “Aryl pyrimidine derivatives, preparation methods and pharmaceutical uses thereof” (Institute of Pharmacology and Toxicology Academy of …, priority 2008, dated 2014)

What was measured:
human PPARδ = biological target: T1, human PPARδ (Homo sapiens, UniProt Q03181); test: Transfection determination: pM-hPPARδ/GAL4 chimeric receptor luciferase reporter, transient transfection in HEK-293 cells; assay type: cell-based; conditions: 1 μM, luciferase read 24 hours after administration, GW501516 positive control
T1 construct: expressed in transfected cells; host or cells: HEK-293 cells (transient co-transfection)
T1 sequence (Q03181 211-439 limits assumed): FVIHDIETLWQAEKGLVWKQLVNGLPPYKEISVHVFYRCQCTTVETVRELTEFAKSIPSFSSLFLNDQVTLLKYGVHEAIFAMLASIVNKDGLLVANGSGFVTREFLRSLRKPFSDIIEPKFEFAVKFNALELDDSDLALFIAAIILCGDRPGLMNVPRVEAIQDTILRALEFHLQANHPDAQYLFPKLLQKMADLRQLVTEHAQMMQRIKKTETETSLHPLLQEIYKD
Excerpt: Transfection Determination
The functional titration of the transient transfection of the compounds in HEK-293 cells was screened to determine their ability to activate PPAR subtype. Chimeric acceptor system was built in advance to compare relative transcription activity of acceptor subtype to same target gene and prevent the complexness of endogenous acceptor activation due to the explanation of results. Ligand binding domain of human PPARδ was fused to yeast transcription factor GAL4DNA binding domain, and then linked to expression carrier pM of mammal to build pM-hPPARδ/GAL4 plasmids. GAL4DNA binding region was connected to pB4-tk-luc to pB4-RES-tk-luc (a report gene of firefly luciferin enzyme containing 5 templates of GAL4DNA binding site). pRL-CMV-Rluc was used as internal standard to correct transfection efficiency and endogenous influence and reduce experimental error.
HEK-293 cells were grown in 48 wells plate, the density of cells was 2-4×10^4/well. The culture medium was 1640 of 10% defatted FCS free of phenol red and antibiotics. After 48 hours, the culture medium was changed as 1640 of 5% defatted FCS free of phenol red and antibiotics, and then pM-hPPARδ/GAL4, pB4-RES-tk-luc and pRL-CMV-Rluc plasmids were co-transfected in HEK-293 cells. The drug was administered after 24 hours, and the luminous intensity of luciferin enzyme was determined 24 hours after administration. The control was 0.2% DMSO.

Compound	Activation ability % (Activation of part of compounds for PPARδ) (human PPARδ) [%]	melting point [°C]
2-methyl-2-{2-methyl-4-[2-(4-trichloromethylphenyl)-pyrimidin-4-yl-methylthio]-phenoxy}-propionic acid [example 20]	144.86	–
O=C(O)CCc1ccc(OCc2ccnc(-c3ccc(F)cc3)n2)cc1 [Example 1, 3-{4-[2-(4-fluorophenyl)-pyrimidin-4-yl-methoxy]-phenyl}-propionic acid]	–	167.2 to 168
O=C(O)CCc1ccc(OCc2ccnc(-c3ccc(Cl)cc3)n2)cc1 [Example 2, 3-{4-[2-(4-chlorophenyl)-pyrimidin-4-yl-methoxy]-phenyl}-propionic acid]	–	168.3 to 169.4
O=C(O)CCc1ccc(OCc2ccnc(-c3ccc(Br)cc3)n2)cc1 [Example 3, 3-{4-[2-(4-bromophenyl)-pyrimidin-4-yl-methoxy]-phenyl}-propionic acid]	–	168 to 168.8
O=C(O)CCc1ccc(OCc2ccnc(-c3ccc(C(F)(F)F)cc3)n2)cc1 [Example 4, 3-{4-[2-(4-trifluoromethylphenyl)-pyrimidin-4-yl-methoxy]-phenyl}-propionic acid]	–	146.6 to 147.5
O=C(O)CCc1ccc(OCc2ccnc(-c3c(F)cc(F)cc3F)n2)cc1 [Example 5, 3-{4-[2-(2,4,6-trifluorophenyl)-pyrimidin-4-yl-methoxy]-phenyl}-propionic acid]	–	143.8 to 144.1
Cc1cc(SCc2ccnc(-c3ccc(C(F)(F)F)cc3)n2)ccc1OCC(=O)O [example 7, {2-methyl-4-[2-(4-trifluoromethylphenyl)-pyrimidin-4-yl-methylthio]phenoxy}-acetic acid]	94.86	159.3 to 160.2
Cc1cc(SCc2ccnc(-c3ccc(F)cc3)n2)ccc1OCC(=O)O [example 8, {2-methyl-4-[2-(4-fluorophenyl)-pyrimidin-4-yl-methylthio]-phenoxy}-acetic acid]	135.46	–
Cc1cc(SCc2ccnc(-c3ccc(Cl)cc3)n2)ccc1OCC(=O)O [example 9, {2-methyl-4-[2-(4-chlorophenyl)-pyrimidin-4-yl-methylthio]-phenoxy}-acetic acid]	88.35	–
Cc1cc(SCc2ccnc(-c3ccc(Br)cc3)n2)ccc1OCC(=O)O [example 10, {2-methyl-4-[2-(4-bromophenyl)-pyrimidin-4-yl-methylthio]-phenoxy}-acetic acid]	108.55	–
Cc1cc(SCc2ccnc(-c3ccc(Cl)cc3)n2)ccc1OC(C)(C)C(=O)O [example 17, 2-methyl-2-{2-methyl-4-[2-(4-chlorophenyl)-pyrimidin-4-yl-methylthio]-phenoxy}-propionic acid]	119.51	–
Cc1cc(SCc2ccnc(-c3ccc(F)cc3)n2)ccc1OC(C)(C)C(=O)O [example 18, 2-methyl-2-{2-methyl-4-[2-(4-fluorophenyl)-pyrimidin-4-yl-methylthio]-phenoxy}-propionic acid]	103.26	139.5 to 140.4
